Experimental data as given in ChEMBL document CHEMBL1201862, “PubChem BioAssay data set” (2004).
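Values below derive from 48-hour exposures of cells grown in 96-well plates, with endpoints linearly interpolated between the two concentrations bracketing the appropriate inhibition level. At the GI50, growth is halved.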 Active and inactive are the calls of the source. Rule as the data show it: active = GI50 up to about 1.1 µM and inactive = higher. Where a SMILES comes first, the peptide text is derived from it. The star is where a group is joined. Fmoc = O=C(OCC1c2ccccc2-c2ccccc21)*; OtBu = CC(C)(C)O*

What was measured:
Assay in all cases: NCI-60 cell line screen, 48 h
UO-31 = tested on: UO-31
SF-539 = tested on: SF-539
CAKI-1 = tested on: CAKI-1
IGROV-1 = tested on: IGROV-1
SNB-19 = tested on: SNB-19
SR = tested on: SR
HL-60 = tested on: HL-60
MDA-MB-231 = tested on: MDA-MB-231
OVCAR-8 = tested on: OVCAR-8
KM12 = tested on: KM12
PC-3 = tested on: PC-3
NCI-H23 = tested on: NCI-H23
OVCAR-4 = tested on: OVCAR-4
HCC 2998 = tested on: HCC 2998
MDA-N = tested on: MDA-N
Malme-3M = tested on: Malme-3M
NCI-H460 = tested on: NCI-H460
T47D = tested on: T47D
OVCAR-3 = tested on: OVCAR-3
SK-MEL-5 = tested on: SK-MEL-5

Compound	GI50 (UO-31)	GI50 (SF-539)	GI50 (CAKI-1)	GI50 (IGROV-1)	GI50 (SNB-19)	GI50 (SR)	GI50 (HL-60)	GI50 (MDA-MB-231)	GI50 (OVCAR-8)	GI50 (KM12)	GI50 (PC-3)	GI50 (NCI-H23)	GI50 (OVCAR-4)	GI50 (HCC 2998)	GI50 (MDA-N)	GI50 (Malme-3M)	GI50 (NCI-H460)	GI50 (T47D)	GI50 (OVCAR-3)	GI50 (SK-MEL-5)
CC(C)/C(Cl)=N/OC(=O)Nc1ccc(Cl)c(Cl)c1	15.3 µM (inactive)	13.6 µM (inactive)	1.75 µM (inactive)	11.7 µM (inactive)	21.5 µM (inactive)	2.49 µM (inactive)	1.76 µM (inactive)	14.9 µM (inactive)	18.1 µM (inactive)	17.5 µM (inactive)	16.6 µM (inactive)	15.3 µM (inactive)	9.31 µM (inactive)	14.9 µM (inactive)	3.59 µM (inactive)	2.16 µM (inactive)	17 µM (inactive)	4.29 µM (inactive)	2.58 µM (inactive)	11.6 µM (inactive)
CC(C)(C)[Si](C)(C)OCC1OC(n2cnc3c(=O)[nH]c(N)nc32)C(O[Si](C)(C)C(C)(C)C)C1O[Si](C)(C)C(C)(C)C (stereo not given)	5.11 µM (inactive)	2.17 µM (inactive)	10.9 µM (inactive)	1.92 µM (inactive)	2.29 µM (inactive)	2.39 µM (inactive)	0.849 µM (active)	3.71 µM (inactive)	3.2 µM (inactive)	1.64 µM (inactive)	1.55 µM (inactive)	1.44 µM (inactive)	1.74 µM (inactive)	1.98 µM (inactive)	1.57 µM (inactive)	1.88 µM (inactive)	1.32 µM (inactive)	2.09 µM (inactive)	1.47 µM (inactive)	0.594 µM (active)
COc1cc(/C=C(\C)[N+](=O)[O-])cc(OC)c1	15.6 µM (inactive)	9.18 µM (inactive)	14.5 µM (inactive)	6.46 µM (inactive)	> 40.9 µM (inactive)	3.01 µM (inactive)	2.04 µM (inactive)	16.7 µM (inactive)	15.6 µM (inactive)	19.3 µM (inactive)	20.1 µM (inactive)	19.1 µM (inactive)	18.1 µM (inactive)	25.1 µM (inactive)	13 µM (inactive)	14.8 µM (inactive)	20.2 µM (inactive)	6.47 µM (inactive)	17.8 µM (inactive)	16 µM (inactive)
NCCCCNCCCN1CC1	1.77 µM (inactive)	0.628 µM (active)	0.0893 µM (active)	2.77 µM (inactive)	1.86 µM (inactive)	2.29 µM (inactive)	0.436 µM (active)	0.624 µM (active)	0.883 µM (active)	4.67 µM (inactive)	5.22 µM (inactive)	2.57 µM (inactive)	0.205 µM (active)	5.73 µM (inactive)	1.62 µM (inactive)	1.77 µM (inactive)	5.5 µM (inactive)	0.354 µM (active)	0.619 µM (active)	1.71 µM (inactive)
CC1=CC(=O)[C@@H](O)[C@]2(C)[C@H]3[C@@]4(O)OC[C@@]35[C@@H](C[C@@H]12)OC(=O)C(OC(=O)CC1=CCCC1)[C@H]5[C@@H](C)[C@H]4O (stereo not given in full)	0.0668 µM (active)	0.0169 µM (active)	0.167 µM (active)	0.0188 µM (active)	0.0344 µM (active)	0.0168 µM (active)	< 0.0168 µM (active)	0.0559 µM (active)	0.0279 µM (active)	0.0256 µM (active)	0.0311 µM (active)	0.0187 µM (active)	0.0527 µM (active)	0.04 µM (active)	0.0269 µM (active)	0.0164 µM (active)	0.023 µM (active)	0.0771 µM (active)	0.0239 µM (active)	0.0167 µM (active)
CC(C)(CO)NC1=C(Cl)C(=O)c2c(O)ccc(O)c2C1=O	1.55 µM (inactive)	1.39 µM (inactive)	1.96 µM (inactive)	1.58 µM (inactive)	1.77 µM (inactive)	0.267 µM (active)	0.233 µM (active)	1.61 µM (inactive)	1.29 µM (inactive)	1.43 µM (inactive)	1.87 µM (inactive)	1.58 µM (inactive)	1.57 µM (inactive)	1.43 µM (inactive)	0.885 µM (active)	1.87 µM (inactive)	2.42 µM (inactive)	1.93 µM (inactive)	1.55 µM (inactive)	1.09 µM (active)
CC(C)C(NC(=O)OCC1c2ccccc2-c2ccccc21)C(=O)NC(CCC(=O)OC(C)(C)C)C(=O)OC(C)(C)C (stereo not given) (Fmoc-Val-Glu(OtBu)-OtBu; configuration not given here)	> 56.2 µM (inactive)	24.1 µM (inactive)	> 100 µM (inactive)	> 100 µM (inactive)	> 100 µM (inactive)	3.29 µM (inactive)	4.14 µM (inactive)	19.3 µM (inactive)	23.9 µM (inactive)	> 29.2 µM (inactive)	3.99 µM (inactive)	14.9 µM (inactive)	12.8 µM (inactive)	> 100 µM (inactive)	> 100 µM (inactive)	> 100 µM (inactive)	21.2 µM (inactive)	8.57 µM (inactive)	> 100 µM (inactive)	7.69 µM (inactive)
COc1ccc(N2N=NN(C(C)C)/C2=C(/Cl)c2nnnn2-c2ccc(OC)cc2)cc1	5.97 µM (inactive)	18.8 µM (inactive)	1.75 µM (inactive)	14.9 µM (inactive)	16 µM (inactive)	2.98 µM (inactive)	2.45 µM (inactive)	9.14 µM (inactive)	6.11 µM (inactive)	17.1 µM (inactive)	14.6 µM (inactive)	16.8 µM (inactive)	5.01 µM (inactive)	19.5 µM (inactive)	13.6 µM (inactive)	11.4 µM (inactive)	18.7 µM (inactive)	4.55 µM (inactive)	9.62 µM (inactive)	15.2 µM (inactive)
COC(=O)c1cc2cc3c(c(O)c2c(=O)o1)O[C@@]1(Oc2c(O)c4c(c(O)c2[C@H]1OC1CC(OC)C(O)C(C)O1)C(=O)C=C(OC)C4=O)[C@H](O)C3 (stereo not given in full)	1.37 µM (inactive)	0.908 µM (active)	0.448 µM (active)	0.705 µM (active)	1 µM (active)	0.458 µM (active)	0.719 µM (active)	1.27 µM (inactive)	1.06 µM (active)	0.904 µM (active)	1.36 µM (inactive)	0.94 µM (active)	0.604 µM (active)	1.2 µM (inactive)	1.22 µM (inactive)	1.28 µM (inactive)	0.685 µM (active)	1.5 µM (inactive)	1.45 µM (inactive)	0.966 µM (active)
N#CC1C(=O)SC2c3ccccc3C(=O)c3ccccc3C12 (stereo not given)	> 10 µM (inactive)	> 10 µM (inactive)	> 10 µM (inactive)	> 10 µM (inactive)	> 10 µM (inactive)	> 10 µM (inactive)	> 10 µM (inactive)	> 10 µM (inactive)	> 10 µM (inactive)	> 10 µM (inactive)	> 10 µM (inactive)	> 10 µM (inactive)	> 10 µM (inactive)	> 10 µM (inactive)	> 10 µM (inactive)	> 10 µM (inactive)	> 10 µM (inactive)	> 10 µM (inactive)	> 10 µM (inactive)	> 10 µM (inactive)
Nc1nc(SCc2ccccc2)c2ncn(Cc3ccccc3)c2n1	> 100 µM (inactive)	> 100 µM (inactive)	30.1 µM (inactive)	> 100 µM (inactive)	> 100 µM (inactive)	> 56.9 µM (inactive)	4.56 µM (inactive)	> 100 µM (inactive)	> 100 µM (inactive)	> 86.9 µM (inactive)	> 100 µM (inactive)	> 67.8 µM (inactive)	> 100 µM (inactive)	> 100 µM (inactive)	> 100 µM (inactive)	> 57.9 µM (inactive)	> 79.4 µM (inactive)	> 47.6 µM (inactive)	> 67.5 µM (inactive)	> 63 µM (inactive)
